From ChEMBL document CHEMBL4507316 (2021)

Tests used:
[1] = target: Serine/threonine-protein kinase haspin (Homo sapiens) (UniProt Q8TF76); assay: GSG2 ProQinase selectivity panel; details: Compound concentration 1.0 uM
[2] = target: CDK6/cyclin D1 (Homo sapiens) (UniProt P24385+Q00534); assay: CDK6/CycD1 ProQinase selectivity panel; type: protein-complex assay; details: Compound concentration 1.0 uM
[3] = target: 5-hydroxytryptamine receptor 2B (Homo sapiens, UniProt P41595); details: Compound concentration 10.0 uM
[4] = target: Serine/threonine-protein kinase WNK2 (Homo sapiens) (UniProt Q9Y3S1); assay: WNK2 ProQinase selectivity panel; details: Compound concentration 1.0 uM
[5] = target: Serine/threonine-protein kinase MARK2 (Homo sapiens) (UniProt Q7KZI7); assay: MARK2 ProQinase selectivity panel; details: Compound concentration 1.0 uM
[6] = target: Mitogen-activated protein kinase 11 (Homo sapiens, UniProt Q15759); assay: p38-beta ProQinase selectivity panel; details: Compound concentration 1.0 uM
[7] = target: Aurora kinase B (Homo sapiens) (UniProt Q96GD4); assay: Aurora-B ProQinase selectivity panel; details: Compound concentration 1.0 uM
[8] = system: RAF proto-oncogene serine/threonine-protein kinase (Homo sapiens), P04049 [Y340D,Y341D]; assay: RAF1 Y340D/Y341D ProQinase selectivity panel; details: Compound concentration 1.0 uM
[9] = target: Mast/stem cell growth factor receptor Kit (Homo sapiens) (UniProt P10721); assay: KIT wt ProQinase selectivity panel; details: Compound concentration 1.0 uM
[10] = target: Protein kinase C beta type (Homo sapiens) (UniProt P05771); assay: PKC-beta2 ProQinase selectivity panel; details: Compound concentration 1.0 uM
[11] = target: Casein kinase I isoform gamma-3 (Homo sapiens) (UniProt Q9Y6M4); assay: CK1-gamma3 ProQinase selectivity panel; details: Compound concentration 1.0 uM
[12] = target: Insulin receptor (Homo sapiens) (UniProt P06213); assay: INS-R ProQinase selectivity panel; details: Compound concentration 1.0 uM
[13] = target: Cyclin-dependent kinase 2/cyclin E (Homo sapiens) (UniProt P24864+P24941+O96020); assay: CDK2/CycE ProQinase selectivity panel; type: protein-complex assay; details: Compound concentration 1.0 uM
[14] = target: Mitogen-activated protein kinase 13 (Homo sapiens) (UniProt O15264); assay: p38-delta ProQinase selectivity panel; details: Compound concentration 1.0 uM
[15] = target: Mitogen-activated protein kinase kinase kinase 9 (Homo sapiens) (UniProt P80192); assay: MAP3K9 ProQinase selectivity panel; details: Compound concentration 1.0 uM
[16] = system: Epidermal growth factor receptor (Homo sapiens), P00533 [UNDEFINED MUTATION]; assay: EGF-R d747-749/A750P ProQinase selectivity panel; details: Compound concentration 1.0 uM
[17] = target: Calcium/calmodulin-dependent protein kinase type II subunit alpha (Homo sapiens) (UniProt Q9UQM7); assay: CAMK2A ProQinase selectivity panel; details: Compound concentration 1.0 uM
[18] = system: Receptor-type tyrosine-protein kinase FLT3 (Homo sapiens), P36888 [D835Y]; assay: FLT3 D835Y ProQinase selectivity panel; details: Compound concentration 1.0 uM
[19] = target: Muscarinic acetylcholine receptor M2 (Homo sapiens) (UniProt P08172); details: Compound concentration 10.0 uM
[20] = target: Serine/threonine-protein kinase Nek3 (Homo sapiens) (UniProt P51956); assay: NEK3 ProQinase selectivity panel; details: Compound concentration 1.0 uM
[21] = target: Proto-oncogene tyrosine-protein kinase receptor Ret (Homo sapiens) (UniProt P07949); assay: RET wt ProQinase selectivity panel; details: Compound concentration 1.0 uM
[22] = target: Activin receptor type-1-like (Homo sapiens) (UniProt P37023); assay: ACV-RL1 ProQinase selectivity panel; details: Compound concentration 1.0 uM
[23] = target: Sodium-dependent dopamine transporter (Homo sapiens, UniProt Q01959); details: Compound concentration 10.0 uM
[24] = target: Testis-specific serine/threonine-protein kinase 1 (Homo sapiens) (UniProt Q9BXA7); assay: TSSK1 ProQinase selectivity panel; details: Compound concentration 1.0 uM
[25] = target: Serine/threonine-protein kinase 33 (Homo sapiens) (UniProt Q9BYT3); assay: STK33 ProQinase selectivity panel; details: Compound concentration 1.0 uM
[26] = target: ALK tyrosine kinase receptor (Homo sapiens) (UniProt Q9UM73); assay: ALK ProQinase selectivity panel; details: Compound concentration 1.0 uM
[27] = system: Hepatocyte growth factor receptor (Homo sapiens), P08581 [Y1230D]; assay: MET Y1230D ProQinase selectivity panel; details: Compound concentration 1.0 uM
[28] = target: Serine/threonine-protein kinase VRK1 (Homo sapiens) (UniProt Q99986); assay: VRK1 ProQinase selectivity panel; details: Compound concentration 1.0 uM
[29] = system: Epidermal growth factor receptor (Homo sapiens), P00533 [UNDEFINED MUTATION]; assay: EGF-R d747-752/P753S ProQinase selectivity panel; details: Compound concentration 1.0 uM
[30] = target: Serine/threonine-protein kinase Nek6 (Homo sapiens) (UniProt Q9HC98); assay: NEK6 ProQinase selectivity panel; details: Compound concentration 1.0 uM
[31] = target: Cyclin-dependent kinase 5/CDK5 activator 1 (Homo sapiens) (UniProt Q00535+Q15078); assay: CDK5/p25NCK ProQinase selectivity panel; type: protein-complex assay; details: Compound concentration 1.0 uM
[32] = target: Dual specificity tyrosine-phosphorylation-regulated kinase 1B (Homo sapiens) (UniProt Q9Y463); assay: DYRK1B ProQinase selectivity panel; details: Compound concentration 1.0 uM
[33] = target: Tyrosine-protein kinase receptor TYRO3 (Homo sapiens) (UniProt Q06418); assay: TYRO3 ProQinase selectivity panel; details: Compound concentration 1.0 uM
[34] = target: Mitogen-activated protein kinase 3 (Homo sapiens) (UniProt P27361); assay: ERK1 ProQinase selectivity panel; details: Compound concentration 1.0 uM
[35] = target: LIM domain kinase 1 (Homo sapiens) (UniProt P53667); assay: LIMK1 ProQinase selectivity panel; details: Compound concentration 1.0 uM
[36] = target: 5-hydroxytryptamine receptor 1A (Homo sapiens) (UniProt P08908); details: Compound concentration 10.0 uM
[37] = target: Dual specificity mitogen-activated protein kinase kinase 2 (Homo sapiens) (UniProt P36507); assay: MEK2 ProQinase selectivity panel; details: Compound concentration 1.0 uM
[38] = target: Eukaryotic elongation factor 2 kinase (Homo sapiens) (UniProt O00418); assay: EEF2K ProQinase selectivity panel; details: Compound concentration 1.0 uM
[39] = target: Mitogen-activated protein kinase kinase kinase kinase 4 (Homo sapiens) (UniProt O95819); assay: MAP4K4 ProQinase selectivity panel; details: Compound concentration 1.0 uM
[40] = target: Inhibitor of nuclear factor kappa-B kinase subunit beta (Homo sapiens) (UniProt O14920); assay: IKK-beta ProQinase selectivity panel; details: Compound concentration 1.0 uM
[41] = target: Ribosomal protein S6 kinase beta-1 (Homo sapiens) (UniProt P23443); assay: S6K ProQinase selectivity panel; details: Compound concentration 1.0 uM
[42] = target: Fibroblast growth factor receptor 1 (Homo sapiens) (UniProt P11362); assay: FGF-R1 wt ProQinase selectivity panel; details: Compound concentration 1.0 uM
[43] = target: MAP kinase-interacting serine/threonine-protein kinase 2 (Homo sapiens) (UniProt Q9HBH9); assay: MKNK2 ProQinase selectivity panel; details: Compound concentration 1.0 uM
[44] = target: Tyrosine-protein kinase Fer (Homo sapiens) (UniProt P16591); assay: FER ProQinase selectivity panel; details: Compound concentration 1.0 uM
[45] = target: Protein kinase C epsilon type (Homo sapiens) (UniProt Q02156); assay: PKC-epsilon ProQinase selectivity panel; details: Compound concentration 1.0 uM
[46] = target: Alpha-2C adrenergic receptor (Homo sapiens) (UniProt P18825); details: Compound concentration 10.0 uM
[47] = target: Cyclin-dependent kinase 2/cyclin A (Homo sapiens) (UniProt P24941+P20248+P78396); assay: CDK2/CycA ProQinase selectivity panel; type: protein-complex assay; details: Compound concentration 1.0 uM
[48] = system: Tyrosine-protein kinase ABL1 (Homo sapiens), P00519 [Y253F]; assay: ABL1 Y253F ProQinase selectivity panel; details: Compound concentration 1.0 uM

Chain of Epidermal growth factor receptor (Homo sapiens), P00533 [UNDEFINED MUTATION] (P00533 whole entry, looked up, stated change not applied): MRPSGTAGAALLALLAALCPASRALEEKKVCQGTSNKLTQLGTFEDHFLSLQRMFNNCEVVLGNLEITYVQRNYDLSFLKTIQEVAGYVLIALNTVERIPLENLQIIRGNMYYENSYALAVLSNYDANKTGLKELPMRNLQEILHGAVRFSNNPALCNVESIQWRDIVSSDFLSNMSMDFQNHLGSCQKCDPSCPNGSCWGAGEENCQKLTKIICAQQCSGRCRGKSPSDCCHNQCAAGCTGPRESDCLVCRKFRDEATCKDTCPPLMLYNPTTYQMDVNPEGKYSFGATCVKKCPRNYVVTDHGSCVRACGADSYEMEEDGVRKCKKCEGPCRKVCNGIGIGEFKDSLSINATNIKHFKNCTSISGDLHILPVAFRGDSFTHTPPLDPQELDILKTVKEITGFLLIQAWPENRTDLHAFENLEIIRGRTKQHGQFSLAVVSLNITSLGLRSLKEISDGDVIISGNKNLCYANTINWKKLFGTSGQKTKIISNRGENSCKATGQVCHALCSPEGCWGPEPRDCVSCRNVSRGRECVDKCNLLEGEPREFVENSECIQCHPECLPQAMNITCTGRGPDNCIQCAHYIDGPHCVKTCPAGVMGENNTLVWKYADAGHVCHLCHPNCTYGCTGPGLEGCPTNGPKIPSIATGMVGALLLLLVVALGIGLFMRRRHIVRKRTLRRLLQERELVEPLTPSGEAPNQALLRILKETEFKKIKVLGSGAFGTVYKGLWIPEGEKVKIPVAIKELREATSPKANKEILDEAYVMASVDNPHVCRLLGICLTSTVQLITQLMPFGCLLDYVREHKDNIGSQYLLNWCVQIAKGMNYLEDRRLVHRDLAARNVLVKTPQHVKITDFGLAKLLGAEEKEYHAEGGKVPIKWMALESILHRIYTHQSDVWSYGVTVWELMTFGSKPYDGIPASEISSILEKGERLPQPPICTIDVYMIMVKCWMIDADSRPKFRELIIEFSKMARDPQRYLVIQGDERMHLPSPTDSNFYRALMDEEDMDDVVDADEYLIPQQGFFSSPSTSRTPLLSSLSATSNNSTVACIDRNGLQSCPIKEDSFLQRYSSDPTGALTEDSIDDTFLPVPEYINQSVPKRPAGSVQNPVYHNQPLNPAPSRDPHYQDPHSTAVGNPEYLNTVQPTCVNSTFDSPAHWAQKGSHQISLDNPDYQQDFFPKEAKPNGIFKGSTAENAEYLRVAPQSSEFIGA
Chain of Proto-oncogene tyrosine-protein kinase receptor Ret (Homo sapiens) (P07949 whole entry): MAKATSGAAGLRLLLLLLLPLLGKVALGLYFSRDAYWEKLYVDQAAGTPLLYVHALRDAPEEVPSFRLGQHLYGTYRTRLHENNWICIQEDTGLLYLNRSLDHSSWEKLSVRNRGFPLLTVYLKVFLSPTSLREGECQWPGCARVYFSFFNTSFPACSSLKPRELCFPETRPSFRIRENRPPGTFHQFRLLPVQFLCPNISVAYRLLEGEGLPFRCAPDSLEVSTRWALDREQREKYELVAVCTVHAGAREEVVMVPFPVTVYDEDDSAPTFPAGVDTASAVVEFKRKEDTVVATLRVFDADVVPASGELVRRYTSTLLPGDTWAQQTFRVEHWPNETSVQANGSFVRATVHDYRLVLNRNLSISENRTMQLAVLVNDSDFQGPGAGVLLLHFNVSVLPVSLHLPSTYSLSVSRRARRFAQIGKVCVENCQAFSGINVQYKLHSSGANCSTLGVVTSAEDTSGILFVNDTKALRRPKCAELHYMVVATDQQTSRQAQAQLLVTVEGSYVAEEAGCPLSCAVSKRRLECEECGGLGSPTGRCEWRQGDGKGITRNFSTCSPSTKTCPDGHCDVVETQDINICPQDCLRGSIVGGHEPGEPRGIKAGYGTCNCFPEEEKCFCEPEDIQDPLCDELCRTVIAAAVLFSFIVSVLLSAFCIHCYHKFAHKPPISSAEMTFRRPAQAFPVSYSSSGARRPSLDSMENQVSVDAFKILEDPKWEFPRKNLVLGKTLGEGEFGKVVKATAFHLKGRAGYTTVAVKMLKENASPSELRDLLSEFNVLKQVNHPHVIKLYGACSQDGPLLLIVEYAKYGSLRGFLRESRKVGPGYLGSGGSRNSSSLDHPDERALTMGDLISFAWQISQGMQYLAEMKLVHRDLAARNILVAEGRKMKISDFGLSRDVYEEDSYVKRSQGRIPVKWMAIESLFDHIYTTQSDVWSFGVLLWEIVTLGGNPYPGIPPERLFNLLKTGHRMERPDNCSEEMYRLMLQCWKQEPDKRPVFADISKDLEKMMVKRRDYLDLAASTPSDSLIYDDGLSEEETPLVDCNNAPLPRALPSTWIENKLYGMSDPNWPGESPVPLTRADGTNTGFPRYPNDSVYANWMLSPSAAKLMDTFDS
Chain of Muscarinic acetylcholine receptor M2 (Homo sapiens) (P08172 whole entry): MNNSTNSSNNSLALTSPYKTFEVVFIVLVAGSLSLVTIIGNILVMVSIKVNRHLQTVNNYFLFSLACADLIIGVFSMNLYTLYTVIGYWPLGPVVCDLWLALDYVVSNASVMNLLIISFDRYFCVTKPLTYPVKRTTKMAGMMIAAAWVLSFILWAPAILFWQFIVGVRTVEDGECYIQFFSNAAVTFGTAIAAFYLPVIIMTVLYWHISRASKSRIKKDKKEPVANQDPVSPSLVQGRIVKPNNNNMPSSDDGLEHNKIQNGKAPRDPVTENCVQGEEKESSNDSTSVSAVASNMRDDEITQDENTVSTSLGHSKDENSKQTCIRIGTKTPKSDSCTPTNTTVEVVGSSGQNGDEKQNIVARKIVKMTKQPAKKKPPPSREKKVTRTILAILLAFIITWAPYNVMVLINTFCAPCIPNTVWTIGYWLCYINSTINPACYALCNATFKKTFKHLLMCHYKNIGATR
Chain of Serine/threonine-protein kinase VRK1 (Homo sapiens) (Q99986 whole entry): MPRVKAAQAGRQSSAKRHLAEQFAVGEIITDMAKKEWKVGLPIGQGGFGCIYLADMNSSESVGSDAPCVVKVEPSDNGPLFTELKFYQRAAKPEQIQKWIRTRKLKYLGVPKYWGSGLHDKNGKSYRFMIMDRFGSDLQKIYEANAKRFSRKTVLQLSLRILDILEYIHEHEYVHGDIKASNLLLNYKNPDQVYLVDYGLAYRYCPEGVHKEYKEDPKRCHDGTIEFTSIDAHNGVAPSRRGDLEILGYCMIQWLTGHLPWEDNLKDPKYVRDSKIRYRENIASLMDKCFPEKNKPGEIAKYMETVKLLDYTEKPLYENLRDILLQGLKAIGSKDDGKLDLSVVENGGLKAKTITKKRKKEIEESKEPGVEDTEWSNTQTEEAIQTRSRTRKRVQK
Chain of LIM domain kinase 1 (Homo sapiens) (P53667 whole entry, looked up, the tested form may be a part): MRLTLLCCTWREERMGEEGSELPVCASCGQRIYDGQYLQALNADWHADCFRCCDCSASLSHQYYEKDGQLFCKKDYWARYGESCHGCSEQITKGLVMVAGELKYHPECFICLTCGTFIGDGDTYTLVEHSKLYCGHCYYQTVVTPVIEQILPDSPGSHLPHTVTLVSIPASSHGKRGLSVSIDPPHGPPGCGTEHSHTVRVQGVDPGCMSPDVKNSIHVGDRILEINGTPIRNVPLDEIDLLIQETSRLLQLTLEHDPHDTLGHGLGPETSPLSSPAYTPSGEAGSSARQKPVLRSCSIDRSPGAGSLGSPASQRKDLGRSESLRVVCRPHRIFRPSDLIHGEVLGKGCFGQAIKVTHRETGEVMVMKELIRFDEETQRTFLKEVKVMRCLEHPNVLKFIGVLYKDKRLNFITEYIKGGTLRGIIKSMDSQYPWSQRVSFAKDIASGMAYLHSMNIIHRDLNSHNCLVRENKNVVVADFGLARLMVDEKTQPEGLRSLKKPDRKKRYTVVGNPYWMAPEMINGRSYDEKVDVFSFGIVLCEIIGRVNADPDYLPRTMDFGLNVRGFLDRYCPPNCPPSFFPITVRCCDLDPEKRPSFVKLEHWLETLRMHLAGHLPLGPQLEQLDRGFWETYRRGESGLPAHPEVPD
Chain of Protein kinase C epsilon type (Homo sapiens) (Q02156 whole entry): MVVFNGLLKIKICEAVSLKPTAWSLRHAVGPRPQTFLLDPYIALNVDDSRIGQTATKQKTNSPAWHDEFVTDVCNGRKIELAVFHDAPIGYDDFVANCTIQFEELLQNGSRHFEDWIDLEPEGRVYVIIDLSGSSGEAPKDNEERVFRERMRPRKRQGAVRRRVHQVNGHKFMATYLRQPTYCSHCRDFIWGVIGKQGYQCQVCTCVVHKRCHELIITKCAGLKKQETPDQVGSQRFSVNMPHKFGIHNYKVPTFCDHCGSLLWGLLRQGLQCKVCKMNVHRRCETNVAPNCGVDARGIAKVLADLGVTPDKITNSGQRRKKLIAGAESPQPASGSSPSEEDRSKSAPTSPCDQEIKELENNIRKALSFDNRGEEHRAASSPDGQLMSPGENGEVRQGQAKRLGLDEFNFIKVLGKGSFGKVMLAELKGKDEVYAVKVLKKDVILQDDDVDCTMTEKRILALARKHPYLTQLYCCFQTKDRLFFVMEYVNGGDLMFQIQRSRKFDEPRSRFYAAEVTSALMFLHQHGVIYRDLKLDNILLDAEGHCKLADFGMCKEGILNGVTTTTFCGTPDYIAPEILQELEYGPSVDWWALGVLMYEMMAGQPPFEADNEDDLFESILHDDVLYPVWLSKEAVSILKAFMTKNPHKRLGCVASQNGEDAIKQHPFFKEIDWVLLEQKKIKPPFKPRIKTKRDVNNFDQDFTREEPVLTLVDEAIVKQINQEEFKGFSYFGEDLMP
Chain of Alpha-2C adrenergic receptor (Homo sapiens) (P18825 whole entry): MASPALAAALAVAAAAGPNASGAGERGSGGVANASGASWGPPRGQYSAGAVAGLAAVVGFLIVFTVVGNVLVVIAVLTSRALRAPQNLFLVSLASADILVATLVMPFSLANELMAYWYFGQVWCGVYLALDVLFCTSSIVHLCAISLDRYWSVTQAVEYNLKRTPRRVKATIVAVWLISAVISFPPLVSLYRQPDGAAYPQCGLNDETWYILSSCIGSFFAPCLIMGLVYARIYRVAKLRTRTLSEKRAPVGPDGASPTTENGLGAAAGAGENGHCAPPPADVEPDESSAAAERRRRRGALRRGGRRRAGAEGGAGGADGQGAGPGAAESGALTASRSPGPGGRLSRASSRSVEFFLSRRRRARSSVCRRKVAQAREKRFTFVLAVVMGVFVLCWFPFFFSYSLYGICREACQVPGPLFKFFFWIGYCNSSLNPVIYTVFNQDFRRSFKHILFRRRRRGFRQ

% Residual activity with Skepinone-L [1]: 82% | % Residual activity with Skepinone-L [2]: 88% | inhibition [3]: 83.1% | % Residual activity with Skepinone-L [4]: 95% | % Residual activity with Skepinone-L [5]: 105% | % Residual activity with Skepinone-L [6]: 3% | % Residual activity with Skepinone-L [7]: 96% | % Residual activity with Skepinone-L [8]: 91% | % Residual activity with Skepinone-L [9]: 111% | % Residual activity with Skepinone-L [10]: 97% | % Residual activity with Skepinone-L [11]: 95% | % Residual activity with Skepinone-L [12]: 101% | % Residual activity with Skepinone-L [13]: 85% | % Residual activity with Skepinone-L [14]: 80% | % Residual activity with Skepinone-L [15]: 90% | % Residual activity with Skepinone-L [16]: 96% | % Residual activity with Skepinone-L [17]: 83% | % Residual activity with Skepinone-L [18]: 101% | inhibition [19]: 40% | % Residual activity with Skepinone-L [20]: 85% | % Residual activity with Skepinone-L [21]: 102% | % Residual activity with Skepinone-L [22]: 105% | inhibition [23]: 81.4% | % Residual activity with Skepinone-L [24]: 90% | % Residual activity with Skepinone-L [25]: 94% | % Residual activity with Skepinone-L [26]: 104% | % Residual activity with Skepinone-L [27]: 95% | % Residual activity with Skepinone-L [28]: 88% | % Residual activity with Skepinone-L [29]: 93% | % Residual activity with Skepinone-L [30]: 97% | % Residual activity with Skepinone-L [31]: 99% | % Residual activity with Skepinone-L [32]: 102% | % Residual activity with Skepinone-L [33]: 108% | % Residual activity with Skepinone-L [34]: 99% | % Residual activity with Skepinone-L [35]: 109% | inhibition [36]: 40.5% | % Residual activity with Skepinone-L [37]: 99% | % Residual activity with Skepinone-L [38]: 88% | % Residual activity with Skepinone-L [39]: 79% | % Residual activity with Skepinone-L [40]: 81% | % Residual activity with Skepinone-L [41]: 85% | % Residual activity with Skepinone-L [42]: 117% | % Residual activity with Skepinone-L [43]: 96% | % Residual activity with Skepinone-L [44]: 101% | % Residual activity with Skepinone-L [45]: 99% | inhibition [46]: 10.8% | % Residual activity with Skepinone-L [47]: 101% | % Residual activity with Skepinone-L [48]: 88%
Structure (SMILES): O=C1c2ccc(Nc3ccc(F)cc3F)cc2CCc2ccc(OC[C@H](O)CO)cc21 [Skepinone-L]
